According to patent US10214531B2 (Institute for Drug Discovery, LLC, priority 2013, dated 2019):
Structures can show the parent of a compound that is named as a salt.

Target: recombinant human AMCase (Homo sapiens, UniProt Q9BZP6)
Test: Human AMCase Activity Assay
Type: biochemical
Details: recombinant hAMCase, 4-methylumbelliferyl chitobioside substrate, citrate buffer pH 5.2, 37° C., 60 minutes; read-out: Activity (IC50 value key)
In short: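 Recombinant human enzyme with fluorogenic 4-methylumbelliferyl β-D-N,N′-diacetylchitobioside substrate in citrate buffer, pH 5.2, 60 min at 37 °C in the dark with shaking. Read-out is 4MU fluorescence at 460 nm.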

Sequence of recombinant human AMCase (Q9BZP6 22-476): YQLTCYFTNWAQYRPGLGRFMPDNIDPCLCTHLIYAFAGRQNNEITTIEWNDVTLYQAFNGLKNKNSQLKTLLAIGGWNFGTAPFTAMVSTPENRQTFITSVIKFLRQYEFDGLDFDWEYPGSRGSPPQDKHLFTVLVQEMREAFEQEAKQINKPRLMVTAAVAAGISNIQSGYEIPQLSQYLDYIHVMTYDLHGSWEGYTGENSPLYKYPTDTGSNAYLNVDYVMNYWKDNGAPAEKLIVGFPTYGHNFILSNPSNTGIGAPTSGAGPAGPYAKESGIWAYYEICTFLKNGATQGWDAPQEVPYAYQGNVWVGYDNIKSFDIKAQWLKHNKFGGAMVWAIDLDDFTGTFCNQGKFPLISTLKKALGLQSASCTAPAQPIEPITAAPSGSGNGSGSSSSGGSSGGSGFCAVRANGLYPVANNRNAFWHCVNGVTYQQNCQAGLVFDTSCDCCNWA

Compound | IC50 [µM]
Nc1n[nH]c(N2CCC(C(=O)NCc3ccc(F)c(F)c3)CC2)n1 [Example 199, 1-(3-amino-1H-1,2,4-triazol-5-yl)-N-(3,4-difluorobenzyl)piperidine-4-carboxamide] | > 100
Nc1n[nH]c(N2CCN(C(=O)CC(N)c3ccccc3F)CC2)n1 (stereo not drawn) [Example 214, 3-amino-1-(4-(3-amino-1H-1,2,4-triazol-5-yl)piperazin-1-yl)-3-(2-fluorophenyl)propan-1-one dihydrochloride] | > 100
Nc1n[nH]c(N2CCC(N(CCc3ccc(Cl)cc3)Cc3ccccc3C(F)(F)F)CC2)n1 [Example 113, 1-(3-amino-1H-1,2,4-triazol-5-yl)-N-(4-chlorophenethyl)-N-(2-(trifluoromethyl)benzyl)piperidin-4-amine] | < 0.1
C[C@H](CN1CCN(c2nc(N)n[nH]2)CC1)Oc1ccc(Cl)cc1 [Example 241, (R)-5-(4-(2-(4-chlorophenoxy)propyl)piperazin-1-yl)-1H-1,2,4-triazol-3-amine dihydrochloride] | > 100
Nc1n[nH]c(N2CCC(CNCc3ccc(Cl)c(Cl)c3)CC2)n1 [Example 252, 5-(4-(((3,4-dichlorobenzyl)amino)methyl)piperidin-1-yl)-1H-1,2,4-triazol-3-amine dihydrochloride] | > 100
Nc1n[nH]c(N2CCC(NS(=O)(=O)Cc3ccc(Cl)c(Cl)c3)CC2)n1 [Example 15, N-(1-(3-amino-1H-1,2,4-triazol-5-yl)piperidin-4-yl)-1-(3,4-dichlorophenyl)methanesulfonamide] | 10 to 100
Nc1n[nH]c(N2CCC(CNC(=O)c3ccc(F)c(F)c3)CC2)n1 [Example 220, N-((1-(3-amino-1H-1,2,4-triazol-5-yl)piperidin-4-yl)methyl)-3,4-difluorobenzamide] | > 100
Cc1oc(C(F)(F)F)cc1CNC(=O)C1CCN(c2nc(N)n[nH]2)CC1 [Example 202, 1-(3-amino-1H-1,2,4-triazol-5-yl)-N-((2-methyl-5-(trifluoromethyl)furan-3-yl)methyl)piperidine-4-carboxamide] | > 100
CC(CCc1ccc(Br)cc1)N1CCN(c2nc(N)n[nH]2)CC1 (stereo not drawn) [Example 19, 5-(4-(4-(4-bromophenyl)butan-2-yl)piperazin-1-yl)-1H-1,2,4-triazol-3-amine] | 10 to 100
Nc1nc(N2CCC(N(CCc3ccc(Cl)cc3)Cc3ccc(Cl)cc3)CC2)n[nH]1 [Example 134, 1-(3-amino-1H-1,2,4-triazol-5-yl)-N-(4-chlorobenzyl)-N-(4-chlorophenethyl)piperidin-4-amine] | < 0.1
Nc1n[nH]c(N2CCC(N(CCc3ccc(Br)cc3)Cc3cccc4ccccc34)CC2)n1 [Example 129, 1-(3-amino-1H-1,2,4-triazol-5-yl)-N-(4-bromophenethyl)-N-(naphthalen-1-ylmethyl)piperidin-4-amine] | < 0.1
Nc1n[nH]c(N2CCC(C(=O)NCc3ccc(Cl)c(Cl)c3)CC2)n1 [Example 17, 1-(3-amino-1H-1,2,4-triazol-5-yl)-N-(3,4-dichlorobenzyl)piperidine-4-carboxamide] | > 100
Nc1n[nH]c(N2CCN(C(=O)CC(N)c3ccc(Cl)cc3)CC2)n1 (stereo not drawn) [Example 40, 3-amino-1-(4-(3-amino-1H-1,2,4-triazol-5-yl)piperazin-1-yl)-3-(4-chlorophenyl)propan-1-one] | > 100
Nc1n[nH]c(N2CCN(C(=O)CC(N)c3ccc(F)cc3)CC2)n1 (stereo not drawn) [Example 215, 3-amino-1-(4-(3-amino-1H-1,2,4-triazol-5-yl)piperazin-1-yl)-3-(4-fluorophenyl)propan-1-one dihydrochloride] | > 100
Nc1n[nH]c(N2CCC(C(=O)NCc3cccc(F)c3)CC2)n1 [Example 196, 1-(3-amino-1H-1,2,4-triazol-5-yl)-N-(3-fluorobenzyl)piperidine-4-carboxamide] | > 100
COc1ccc(CNC(=O)C2CCN(c3nc(N)n[nH]3)CC2)cc1 [Example 206, 1-(3-amino-1H-1,2,4-triazol-5-yl)-N-(4-methoxybenzyl)piperidine-4-carboxamide] | > 100
Nc1n[nH]c(N2CCC(CNC(=O)c3cc(Br)cc(Br)c3)CC2)n1 [Example 209, N-((1-(3-amino-1H-1,2,4-triazol-5-yl)piperidin-4-yl)methyl)-3,5-dibromobenzamide] | > 100
Nc1n[nH]c(N2CCN(CCOc3ccc(Cl)cc3)CC2)n1 [Example 2, 5-(4-(2-(4-chlorophenoxy)ethyl)piperazin-1-yl)-1H-1,2,4-triazol-3-amine] | 1 to 10
CC1CN(c2nc(N)n[nH]2)CCC1N(C)CCc1ccc(Br)cc1 (stereo not drawn) [Example 230, 1-(3-amino-1H-1,2,4-triazol-5-yl)-N-(4-bromophenethyl)-N,3-dimethylpiperidin-4-amine dihydrochloride] | 0.1 to 1
CS(=O)(=O)c1ccc(-c2noc(C3CCN(c4nc(N)n[nH]4)CC3)n2)cc1 [Example 42, 5-(4-(3-(4-(methylsulfonyl)phenyl)-1,2,4-oxadiazol-5-yl)piperidin-1-yl)-1H-1,2,4-triazol-3-amine] | > 100
Cc1ccc(OC(C)C(=O)N2CCN(c3nc(N)n[nH]3)CC2)c(C)c1 (stereo not drawn) [Example 35, 1-(4-(3-amino-1H-1,2,4-triazol-5-yl)piperazin-1-yl)-2-(2,4-dimethylphenoxy)propan-1-one] | > 100
Nc1n[nH]c(N2CCC(C(=O)NCc3cc(C(F)(F)F)cc(C(F)(F)F)c3)CC2)n1 [Example 255, 1-(3-amino-1H-1,2,4-triazol-5-yl)-N-(3,5-bis(trifluoromethyl)benzyl)piperidine-4-carboxamide] | > 100
Nc1n[nH]c(N2CCC(NS(=O)(=O)Cc3ccc(F)cc3)CC2)n1 [Example 57, N-(1-(3-amino-1H-1,2,4-triazol-5-yl)piperidin-4-yl)-1-(4-fluorophenyl)methanesulfonamide] | 10 to 100
CCCC1(NCCc2ccc(Br)cc2)CCN(c2nc(N)n[nH]2)CC1 [Example 247, 1-(3-amino-1H-1,2,4-triazol-5-yl)-N-(4-bromophenethyl)1-4-propyl piperidin-4-amine, dihydrochloride] | 1 to 10
Nc1nc(N2CCC(N(CCc3ccc(Cl)cc3)Cc3cccc(Cl)c3)CC2)n[nH]1 [Example 110, 1-(3-amino-1H-1,2,4-triazol-5-yl)-N-(3-chlorobenzyl)-N-(4-chlorophenethyl) piperidin-4-amine dihydrochloride] | < 0.1
CC(CN1CCN(c2nc(N)n[nH]2)CC1)Oc1ccc(Br)cc1 (stereo not drawn) [Example 20-1, 5-(4-(2-(4-bromophenoxy)propyl)piperazin-1-yl)-1H-1,2,4-triazol-3-amine] | 10 to 100

Next, values leading:

IC50 [µM] | Compound
1 to 10 | CN(CCc1ccc2c(c1)OCO2)C1CCN(c2nc(N)n[nH]2)CC1 [Example 170, 1-(3-amino-1H-1,2,4-triazol-5-yl)-N-(2-(benzo[d][1,3]dioxol-5-yl)ethyl)-N-methylpiperidin-4-amine]
< 0.1 | CC(Cc1ccc(Cl)cc1)N(Cc1ccccc1)C1CCN(c2nc(N)n[nH]2)CC1 (stereo not drawn) [Example 159, 1-(3-amino-1H-1,2,4-triazol-5-yl)-N-benzyl-N-(1-(4-chlorophenyl)propan-2-yl)piperidin-4-amine dihydrochloride]
< 0.1 | CC(C)(C)CCN(CCc1ccc(Cl)cc1)C1CCN(c2nc(N)n[nH]2)CC1 [Example 93, 1-(3-amino-1H-1,2,4-triazol-5-yl)-N-(4-chlorophenethyl)-N-(3,3-dimethylbutyl) piperidin-4-amine]
< 0.1 | Nc1n[nH]c(N2CCC(N(CCc3ccc(Cl)cc3)CCc3ccc(Cl)cc3)CC2)n1 [Example 162, 1-(3-amino-1H-1,2,4-triazol-5-yl)-N,N-bis(4-chlorophenethyl)piperidin-4-amine]
< 0.1 | Nc1n[nH]c(N2CCC(N(CCc3ccc(Cl)cc3)Cc3ccc(F)cc3)CC2)n1 [Example 123, 1-(3-amino-1H-1,2,4-triazol-5-yl)-N-(4-chlorophenethyl)-N-(4-fluorobenzyl)piperidin-4-amine]
1 to 10 | C[C@H](Cc1ccc(Cl)cc1)N(C)C1CCN(c2nc(N)n[nH]2)CC1 [Example 139, (R)-1-(3-amino-1H-1,2,4-triazol-5-yl)-N-(1-(4-chlorophenyl)propan-2-yl)-N-methylpiperidin-4-amine dihydrochloride]
> 100 | Nc1n[nH]c(N2CCN(C(=O)[C@H](O)Cc3ccc(Cl)cc3)CC2)n1 [Example 72, (R)-1-(4-(3-amino-1H-1,2,4-triazol-5-yl)piperazin-1-yl)-3-(4-chlorophenyl)-2-hydroxypropan-1-one]
1 to 10 | CCC(Cc1ccc(Cl)cc1)N(C)C1CCN(c2nc(N)n[nH]2)CC1 (stereo not drawn) [Example 160, 1-(3-amino-1H-1,2,4-triazol-5-yl)-N-(1-(4-chlorophenyl)butan-2-yl)-N-methylpiperidin-4-amine]
> 100 | CN(C1CCN(c2nc(N)n[nH]2)CC1)S(=O)(=O)Cc1cccc(Cl)c1 [Example 248, N-(1-(3-amino-1H-1,2,4-triazol-5-yl)piperidin-4-yl)-2-(3-chlorophenyl)-N-methylmethanesulfonamide hydrochloride]
10 to 100 | CCC(CN1CCN(c2nc(N)n[nH]2)CC1)Oc1ccc(Cl)cc1 (stereo not drawn) [Example 63, 5-(4-(2-(4-chlorophenoxy)butyl)piperazin-1-yl)-1H-1,2,4-triazol-3-amine]
10 to 100 | CC(CN(C)C1CCN(c2nc(N)n[nH]2)CC1)c1ccc(Cl)cc1 (stereo not drawn) [Example 140, 1-(3-amino-1H-1,2,4-triazol-5-yl)-N-(2-(4-chlorophenyl)propyl)-N-methylpiperidin-4-amine dihydrochloride]
< 0.1 | CC(Cc1ccc(Cl)cc1)N(C)C1CCN(c2nc(N)n[nH]2)CC1 (stereo not drawn) [Example 200, 1-(3-amino-1H-1,2,4-triazol-5-yl)-N-(1-(4-chlorophenyl)propan-2-yl)-N-methylpiperidin-4-amine]
0.1 to 1 | CCCC1CN(c2nc(N)n[nH]2)CCC1NCCc1ccc(Cl)cc1 (single isomer, unassigned) [Example 234, 1-(3-amino-1H-1,2,4-triazol-5-yl)-N-(4-chlorophenethyl)-3-propylpiperidin-4-amine]
